Data on 22 molecules can be found in patent US11420944B2, “Voltage-dependent t-type calcium channel blocker” (Nippon Chemiphar Co., Ltd., priority 2016, dated 2022).

The target of one series is T1, CYP3A4 (Homo sapiens, UniProt P08684).
T1 construct: purchased Cypex, Ltd; host or cells: E. coli membranes (Bactosomes)
Description: Evaluation of CYP3A4 activity inhibitory action. In kind it is in vitro ADME. The settings on record: Human CYP3A4BR EasyCYP Bactosomes, 7-Benzyloxy-4-(trifluoromethyl)-coumarin. As to the method:
Evaluation of CYP3A4 Activity Inhibitory Action
To a 50 mM potassium phosphate buffer solution (pH 7.4), 5 nM Human CYP3A4BR EasyCYP Bactosomes (Cypex, Ltd.), 50 μM 7-Benzyloxy-4-(trifluoromethyl)-coumarin, cofactor mix (0.0081 mM β-NADP^+, 0.4 mM G-6-P, 0.4 mM MgCl2, and 0.2 U/mL G-6-P DH(Y)), and 0.01% Pluronic F-127 were added, and the mixture was incubated for 45 minutes at 37° C. The reaction was initiated by adding the cofactor mix. After the incubation, 0.5 M Tris base/acetonitrile (20:80) was added thereto as a reaction terminating liquid, and the resulting mixture was stirred. Subsequently, the fluorescence intensity (excitation: 405 nm, emission: 535 nm) was measured. The reaction was carried out in duplicate. The results are presented as the inhibition rate at 10 μM of the test compound.

The target of series [1] is T2, human Cav3.2 channels (Homo sapiens, UniProt O95180).
T2 construct: expressed in transfected cells; host or cells: HEK293 cells (ATCC No. CRL-1573), plasmid pcDNA3.1(+)
T2 sequence (O95180 whole entry): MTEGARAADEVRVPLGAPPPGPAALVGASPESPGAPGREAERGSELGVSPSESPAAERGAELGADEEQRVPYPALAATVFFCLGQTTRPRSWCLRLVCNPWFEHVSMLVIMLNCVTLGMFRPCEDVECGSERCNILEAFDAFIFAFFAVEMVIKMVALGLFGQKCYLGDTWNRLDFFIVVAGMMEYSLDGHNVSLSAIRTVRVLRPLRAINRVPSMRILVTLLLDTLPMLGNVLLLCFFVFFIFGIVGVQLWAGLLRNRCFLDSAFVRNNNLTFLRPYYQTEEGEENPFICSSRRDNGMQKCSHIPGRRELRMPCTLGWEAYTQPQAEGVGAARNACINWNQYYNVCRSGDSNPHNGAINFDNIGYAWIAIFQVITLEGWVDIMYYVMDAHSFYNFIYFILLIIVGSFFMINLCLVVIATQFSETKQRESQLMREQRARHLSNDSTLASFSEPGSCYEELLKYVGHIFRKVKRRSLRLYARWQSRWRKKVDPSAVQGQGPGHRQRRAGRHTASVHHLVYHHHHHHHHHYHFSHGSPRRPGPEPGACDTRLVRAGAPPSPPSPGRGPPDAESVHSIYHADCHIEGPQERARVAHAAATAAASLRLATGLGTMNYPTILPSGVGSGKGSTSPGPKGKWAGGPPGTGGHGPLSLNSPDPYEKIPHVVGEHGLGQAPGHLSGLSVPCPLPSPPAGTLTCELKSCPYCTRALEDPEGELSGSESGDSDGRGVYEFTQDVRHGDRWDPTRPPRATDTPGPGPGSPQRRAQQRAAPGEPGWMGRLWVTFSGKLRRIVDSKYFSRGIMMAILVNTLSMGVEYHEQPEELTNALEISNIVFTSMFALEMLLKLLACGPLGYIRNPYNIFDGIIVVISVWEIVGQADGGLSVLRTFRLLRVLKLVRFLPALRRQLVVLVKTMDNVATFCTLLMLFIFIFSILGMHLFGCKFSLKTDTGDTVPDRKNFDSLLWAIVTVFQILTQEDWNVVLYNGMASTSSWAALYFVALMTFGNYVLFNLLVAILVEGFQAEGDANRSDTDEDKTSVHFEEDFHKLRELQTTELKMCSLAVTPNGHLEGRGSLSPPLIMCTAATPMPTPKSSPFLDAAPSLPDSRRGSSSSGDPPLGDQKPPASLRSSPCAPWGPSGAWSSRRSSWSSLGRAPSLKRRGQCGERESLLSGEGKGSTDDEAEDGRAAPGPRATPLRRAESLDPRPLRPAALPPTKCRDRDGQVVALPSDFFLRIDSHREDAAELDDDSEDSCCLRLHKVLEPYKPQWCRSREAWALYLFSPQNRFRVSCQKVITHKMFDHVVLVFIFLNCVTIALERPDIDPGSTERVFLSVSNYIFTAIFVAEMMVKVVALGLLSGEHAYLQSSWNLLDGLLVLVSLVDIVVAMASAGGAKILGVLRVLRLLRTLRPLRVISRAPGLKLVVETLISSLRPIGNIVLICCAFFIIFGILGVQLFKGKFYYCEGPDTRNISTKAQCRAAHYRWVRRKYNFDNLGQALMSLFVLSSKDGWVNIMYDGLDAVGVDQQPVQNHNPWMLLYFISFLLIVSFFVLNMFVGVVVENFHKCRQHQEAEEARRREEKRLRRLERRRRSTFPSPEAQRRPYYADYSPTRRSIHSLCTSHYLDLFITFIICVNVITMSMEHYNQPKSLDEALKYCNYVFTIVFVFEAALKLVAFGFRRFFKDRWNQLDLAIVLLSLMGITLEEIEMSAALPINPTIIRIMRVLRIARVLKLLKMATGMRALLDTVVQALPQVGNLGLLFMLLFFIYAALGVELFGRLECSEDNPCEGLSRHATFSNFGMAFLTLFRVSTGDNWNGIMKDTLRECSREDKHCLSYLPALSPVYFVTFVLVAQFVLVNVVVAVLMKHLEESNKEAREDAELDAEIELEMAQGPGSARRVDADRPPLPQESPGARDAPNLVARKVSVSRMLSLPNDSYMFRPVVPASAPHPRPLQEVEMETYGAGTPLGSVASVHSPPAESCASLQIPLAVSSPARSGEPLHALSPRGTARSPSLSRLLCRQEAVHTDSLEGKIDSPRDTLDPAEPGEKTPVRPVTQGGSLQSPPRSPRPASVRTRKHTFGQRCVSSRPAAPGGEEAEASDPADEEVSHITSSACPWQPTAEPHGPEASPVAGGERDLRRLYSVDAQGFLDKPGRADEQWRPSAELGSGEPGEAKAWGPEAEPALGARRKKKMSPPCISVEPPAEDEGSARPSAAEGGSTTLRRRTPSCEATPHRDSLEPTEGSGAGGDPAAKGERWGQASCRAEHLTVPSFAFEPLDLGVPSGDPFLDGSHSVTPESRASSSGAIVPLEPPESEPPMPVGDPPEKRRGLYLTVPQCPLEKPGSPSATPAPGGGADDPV
The series is described as follows: Intracellular calcium concentration measurement (Fluo-4 AM) in stable cells expressing human Cav3.2 channels, buffer A / buffer B. In kind it is cell-based. The gist of the method: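 HEK293 cells stably expressing human Cav3.2, Fluo-4 loaded, preincubated 15 min at room temperature with compound (0.1% DMSO final) in buffer A (K+ equilibrium −92 mV) or B (−110 mV). After ionophore, KCl (83.8 or 91.8 mM) stimulus; 10 s fluorescence rise (ex 485/em 510 nm) gave % inhibition and IC50.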
(In general: A change in cytosolic calcium serves as a functional read-out for many receptors and channels.)

Series [2] addresses T2, human Cav3.2 channels. Description: Electrophysiological evaluation, whole-cell patch-clamp with automatic patch-clamp system. As to conditions: for inhibition at 0.3 µM: holding potential −80 mV, read-out: Cav3.2 channel current inhibition ratio at 0.3 μM of test compound (holding potential −80 mV). In kind it is cell-based. On the procedure:
Electrophysiological Evaluation
Stable cell line expressing human Cav3.2 channels, which had been produced by Test method (1) of Example 140, was seeded in a 10-cm dish using DMEM medium containing 10% FBS, and the cells were cultured for 24 hours or longer under the conditions of 37° C. and 5% CO2. The cells were detached using Accutase and were used after being suspended in ice-cold extracellular solution. The Cav3.2 channel current was measured by the Whole-cell patch-clamp method using an automatic patch-clamp system (Port-a-Patch; Nanion Technologies GmbH, EPC-10; HEKA Elektronik GmbH, Patchmaster; HEKA Elektronik GmbH) and buffers described below. Measurement of the Cav3.2 channel current was carried out at room temperature, and the measurement conditions were set as follows: holding potential: −80 mV, depolarization potential: −20 mV, depolarization time: 100 msec, and depolarization frequency: 10 sec. The Cav3.2 channel current was defined as the peak value of the inward current observed when depolarization occurred at −20 mV.
For a test compound, a DMSO solution was diluted 1,000 times with extracellular solution, and thus a solution having an intended concentration was produced. The test compound was applied using an extracellular perfusion system (Nanion Technologies GmbH) until the Cav3.2 channel current was stabilized, and five concentrations at the maximum from the low-concentration side were cumulatively applied. The inhibition ratio of the test compound was calculated from the current value immediately before the application of the test compound and the change rate of the Cav3.2 channel current after the application of the test compound (conditions for a holding potential of −80 mV: test compound concentration of 0.3 μM, conditions for a holding potential of −100 mV: test compound concentration of 3 μM).
Extracellular solution: 135 mM NaCl, 4 mM KCl, 1 mM MgCl2, 5 mM CaCl2, 5 mM D-Glucose, and 10 mM HEPES, pH 7.4
Internal solution for electrode: 10 mM NaCl, 10 mM HEPES, 50 mM CsCl, 60 mM CsF, and 20 mM EGTA, pH 7.2
A general note: In patch-clamp work, channel activity is measured electrically.

Where [3] appears, read: Tables 2 to 6, buffer A, equilibrium potential of potassium −92 mV, read-out: Inhibitory action of buffer A (inactivated state).

Where two headings read alike, the source gives them in different places.

T1 sequence (P08684 whole entry): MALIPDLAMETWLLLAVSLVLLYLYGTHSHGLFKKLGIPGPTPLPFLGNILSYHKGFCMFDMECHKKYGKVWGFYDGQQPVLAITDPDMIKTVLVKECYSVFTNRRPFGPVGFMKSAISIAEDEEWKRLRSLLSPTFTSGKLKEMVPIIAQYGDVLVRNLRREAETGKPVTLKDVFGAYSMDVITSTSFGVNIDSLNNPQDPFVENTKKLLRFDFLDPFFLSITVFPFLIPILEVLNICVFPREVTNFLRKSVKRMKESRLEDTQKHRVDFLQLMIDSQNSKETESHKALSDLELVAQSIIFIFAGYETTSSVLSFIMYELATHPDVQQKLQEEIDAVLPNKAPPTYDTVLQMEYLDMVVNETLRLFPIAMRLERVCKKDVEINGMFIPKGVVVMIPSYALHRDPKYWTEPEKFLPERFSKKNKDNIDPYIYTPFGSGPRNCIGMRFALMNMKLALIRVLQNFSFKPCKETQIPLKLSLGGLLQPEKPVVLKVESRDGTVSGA

On to `C[C@@H](NC(=O)[C@@H]1CCN(CC(=O)Nc2ccccc2)C1)c1ccc(OCC(F)(F)F)s1.Cl` [Example 17], for which the “CYP3A4 activity inhibition ratio at 10 μM of test compound” value (shortened to “CYP3A4 activity inhibition ratio”) at CYP3A4 turned out to be 31.8%.

`C[C@@H](NC(=O)C1CC1c1c[nH]c2ccccc12)c1ccc(OCC(F)(F)F)s1` (single isomer, unassigned) [Example 21A]: the “CYP3A4 activity inhibition ratio” value on CYP3A4 was determined as 16.9%. Further, on human Cav3.2 channels [1] (setting [3]), the IC50 fell in the range of 100 to 1000 nM. With `C[C@@H](NC(=O)C1CC1c1nc2cc(Cl)ccc2[nH]1)c1ccc(OCC(F)(F)F)s1` (stereo partly drawn) [Example 53, Trans-2-(5-chloro-1H-benzo[d]imidazol-2-yl)-N—((R)-1-(5-(2,2,2-trifluoroethoxy)thiophen-2-yl)ethyl)cyclopropane-1-carboxamide], the “CYP3A4 activity inhibition ratio” value at CYP3A4 is 3.0%. For the molecule `CCn1c(C2CC2C(=O)N[C@H](C)c2cnc(OCC(F)(F)F)s2)nc2ccccc21` (stereo partly drawn) [Example 57, Trans-2-(1-ethyl-1H-benzo[d]imidazol-2-yl)-N—((R)-1-(2-(2,2,2-trifluoroethoxy)thiazol-5-yl)ethyl)cyclopropane-1-carboxamide], the “CYP3A4 activity inhibition ratio” value at CYP3A4 is given as −1.4%. As for `CCN(CC)C(=O)c1ccc([C@@H](C)NC(=O)C2CC2c2nc3ccccc3[nH]2)s1` (stereo in doubt) [Example 32, Trans-5-((1R)-1-(2-(1H-benzo[d]imidazol-2-yl)cyclopropane-1-carboxamido)ethyl)-N,N-diethylthiophene-2-carboxamide], the “CYP3A4 activity inhibition ratio” value on CYP3A4 was 23.3%. Also, the IC50 at human Cav3.2 channels [1] (setting [3]) was in the range of 100 to 1000 nM. Regarding `C[C@@H](NC(=O)C1CC1c1ccc2ccccc2n1)c1ccc(OCC(F)(F)F)s1` (stereo partly drawn) [Example 34, Trans-2-(quinolin-2-yl)-N—((R)-1-(5-(2,2,2-trifluoroethoxy)thiophen-2-yl)ethyl)cyclopropane-1-carboxamide], on CYP3A4, the “CYP3A4 activity inhibition ratio” value is listed as 19.6%.

`C[C@@H](NC(=O)[C@H]1C[C@@H]1c1nc2ccccc2[nH]1)c1ccc(C(=O)N2CCCC2)s1` [Example 33, Trans-2-(1H-benzo[d]imidazol-2-yl)-N—((R)-1-(5-(pyrrolidine-1-carbonyl)thiophen-2-yl)ethyl)cyclopropane-1-carboxamide]: the “CYP3A4 activity inhibition ratio” value on CYP3A4 is on record as −12.8%. The IC50 at human Cav3.2 channels [1] (setting [3]) was in the range of 100 to 1000 nM. On to `C[C@@H](NC(=O)C1CC1c1nc2ccccc2[nH]1)c1ccc(C(=O)OC(C)(C)C)s1` (stereo partly drawn) [Example 25, Trans-5-((1R)-1-(2-(1H-benzo[d]imidazol-2-yl)cyclopropane-1-carboxamido)ethyl)thiophene-2-carboxylic acid tert-butyl ester], for which the “CYP3A4 activity inhibition ratio” value on CYP3A4 is reported as 8.7%. Still for that read-out and setting: next, `C[C@@H](NC(=O)Cc1ccc(C2CC2)cc1)c1ccc(OCC(F)(F)F)cn1` [TTA-A2, reference compound]: 55.7%. Turning to `CCn1c(C2CC2C(=O)N[C@H](C)c2ccc(OCC(F)(F)F)s2)nc2ccccc21` (single isomer, unassigned) [Example 54], the “CYP3A4 activity inhibition ratio” value on CYP3A4 is recorded as −1.1%. The IC50 at human Cav3.2 channels [1] (setting [3]) is no more than 100 nM. On to `C[C@@H](NC(=O)[C@H]1C[C@@H]1c1nc2ccccc2[nH]1)c1ccc2c(c1)CCO2` [Example 78, (1S,2S)-2-(1H-benzo[d]imidazol-2-yl)-N—((R)-1-(2,3-dihydrobenzofuran-5-yl)ethyl)cyclopropane-1-carboxamide], for which, on human Cav3.2 channels [1] (setting [3]), the IC50 is 100 to 1000 nM. Besides, the inhibition at 0.3 µM on human Cav3.2 channels [2] turned out to be 49%. On the same counts, the results for `C[C@@H](NC(=O)[C@H]1C[C@@H]1c1nc2ccccc2[nH]1)c1ccc2c(c1)OC(F)(F)O2` [Example 73, (1S,2S)-2-(1H-benzo[d]imidazol-2-yl)-N—((R)-1-(2,2-difluorobenzo[d][1,3]dioxol-5-yl)ethyl)cyclopropane-1-carboxamide] are 100 to 1000 nM and 50%. For `C[C@H](c1cc2ccc(F)cc2o1)N(C)C(=O)[C@H]1C[C@@H]1c1nc2ccccc2[nH]1` [Example 129, (1S,2S)-2-(1H-benzo[d]imidazol-2-yl)-N—((R)-1-(6-fluorobenzofuran-2-yl)ethyl)-N-methylcyclopropane-1-carboxamide], on CYP3A4, the “CYP3A4 activity inhibition ratio” value is recorded as 56.0%. Also, the IC50 at human Cav3.2 channels [1] (setting [3]) is 100 to 1000 nM. Turning to `C[C@@H](NC(=O)[C@H]1C[C@@H]1c1nc2ccccc2[nH]1)c1cc2ccccn2n1` [Example 93, (1S,2S)-2-(1H-benzo[d]imidazol-2-yl)-N—((R)-1-(pyrazolo[1,5-a]pyridin-2-yl)ethyl)cyclopropane-1-carboxamide], the IC50 on human Cav3.2 channels [1] (setting [3]) fell in the range of 1000 to 10000 nM. The inhibition at 0.3 µM at human Cav3.2 channels [2] was 22%. As to `C[C@@H](NC(=O)[C@H]1C[C@@H]1c1nc2cc(F)ccc2[nH]1)c1cc2cc(F)ccc2o1` [Example 125, (1S,2S)-2-(5-fluoro-1H-benzo[d]imidazol-2-yl)-N—((R)-1-(5-fluorobenzofuran-2-yl)ethyl)cyclopropane-1-carboxamide], the “CYP3A4 activity inhibition ratio” value at CYP3A4 was determined as 25.0%. For the same molecule, the IC50 on human Cav3.2 channels [1] (setting [3]) was no more than 100 nM. For `C[C@@H](NC(=O)[C@H]1C[C@@H]1c1nc2ccccc2[nH]1)c1ccc(C(=O)N(C)c2ccc(F)cc2)s1` [Example 62, Trans-5-((1R)-1-(2-(1H-benzo[d]imidazol-2-yl)cyclopropane-1-carboxamido)ethyl)-N-(4-fluorophenyl)-N-methylthiophene-2-carboxamide], the IC50 at human Cav3.2 channels [1] (setting [3]) lay in the range of 100 to 1000 nM. Also, on human Cav3.2 channels [2], the inhibition at 0.3 µM came to 34%.

For the molecule `C[C@@H](NC(=O)C1CC1c1nc2ccccc2[nH]1)c1cnc(OCC(F)(F)F)s1` (single isomer, unassigned) [Example 8A], the IC50 at human Cav3.2 channels [1] (Table 1, buffer A, equilibrium potential of potassium −92 mV, read-out: Inhibitory action of buffer A (inactivated state)) was 100 to 1000 nM; at human Cav3.2 channels [1] (Table 1, buffer B, equilibrium potential of potassium −110 mV, read-out: Inhibitory action of buffer B (resting state or closed state)), greater than 10000 nM. Further, the inhibition at 0.3 µM at human Cav3.2 channels [2] is 1%. Besides, at human Cav3.2 channels [2] (3 μM, holding potential −100 mV), the “Cav3.2 channel current inhibition ratio at 3 μM of test compound (holding potential −100 mV)” value is 13%. On to `C[C@@H](NC(=O)[C@H]1C[C@@H]1c1nc2ccccc2[nH]1)c1cc2ccccc2o1` [Example 76, (1S,2S)-2-(1H-benzo[d]imidazol-2-yl)-N—((R)-1-(benzofuran-2-yl)ethyl)cyclopropane-1-carboxamide], for which the IC50 on human Cav3.2 channels [1] (setting [3]) fell in the range of 100 to 1000 nM. Moreover, the inhibition at 0.3 µM at human Cav3.2 channels [2] was found to be 49%. On the same counts, the results for `C[C@@H](NC(=O)C1CC1c1c[nH]c2ccccc12)c1cnc(OCC(F)(F)F)s1` (single isomer, unassigned) [Example 49] are no more than 100 nM and 35%. For `CC(NC(=O)[C@H]1C[C@@H]1c1nc2ccccc2[nH]1)c1nc2cc(F)ccc2s1` (stereo partly drawn) [Example 104, (1S,2S)-2-(1H-benzo[d]imidazol-2-yl)-N-(1-(5-fluorobenzo[d]thiazol-2-yl)ethyl)cyclopropane-1-carboxamide], on human Cav3.2 channels [1] (setting [3]), the IC50 was no more than 100 nM. Also, the inhibition at 0.3 µM at human Cav3.2 channels [2] was determined as 52%. `C[C@@H](NC(=O)C1CC1c1nc(-c2ccccn2)c[nH]1)c1ccc(OCC(F)(F)F)s1` (mixture of isomers) [Example 39, Trans-2-(4-(pyridin-2-yl)-1H-imidazol-2-yl)-N—((R)-1-(5-(2,2,2-trifluoroethoxy)thiophen-2-yl)ethyl)cyclopropane-1-carboxamide]: the IC50 on human Cav3.2 channels [1] (setting [3]) fell in the range of 100 to 1000 nM. For the same molecule, the inhibition at 0.3 µM on human Cav3.2 channels [2] was found to be 50%. On the same counts, the results for `C[C@@H](NC(=O)C1CC1c1ncc2ccccn12)c1cc2cc(F)ccc2o1` (single isomer, unassigned) [Example 117A] are 100 to 1000 nM and 70%.
